48 compounds from patent US9018383B2, “Acylamino-substituted cyclic carboxylic acid derivatives and their use as pharmaceuticals” (Sanofi, priority 2009, dated 2015) can be followed below.

SMILES strings stand for the structures.

Sequence of human Edg-2 receptor (Q92633 whole entry): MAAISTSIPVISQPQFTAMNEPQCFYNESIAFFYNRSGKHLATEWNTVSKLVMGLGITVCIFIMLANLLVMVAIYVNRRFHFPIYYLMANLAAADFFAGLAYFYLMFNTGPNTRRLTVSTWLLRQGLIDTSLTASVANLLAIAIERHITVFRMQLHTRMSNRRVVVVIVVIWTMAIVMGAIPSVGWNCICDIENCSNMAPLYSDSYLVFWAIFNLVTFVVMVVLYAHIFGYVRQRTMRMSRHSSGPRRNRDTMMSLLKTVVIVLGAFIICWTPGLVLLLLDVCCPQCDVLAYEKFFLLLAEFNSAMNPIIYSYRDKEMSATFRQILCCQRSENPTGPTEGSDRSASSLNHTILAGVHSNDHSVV

For this experiment, the target named is human Edg-2 receptor (Homo sapiens, UniProt Q92633). The experiment is described as follows: Determination of Edg-2 receptor inhibition by FLIPR measurements (LPA-mediated calcium liberation). It is filed as cell-based. To be noted: CHO cells overexpressing human Edg-2 receptor, LPA 100 nM, fluo-4 calcium fluorescence; read-out: Inhibitory concentrations IC50 for inhibition of the Edg-2 receptor. The protocol:
A) Determination of Edg-2 Receptor Inhibition by Fluorescence Imaging Plate Reader (FLIPR) Measurements
The inhibition of the Edg-2 receptor (LPA1 receptor) by the compounds of the invention was quantified by the inhibitory effect on the LPA-mediated calcium liberation in a cell-based calcium fluorescence assay by use of Chinese hamster ovarian (CHO) cells in which the human Edg-2 receptor was stably overexpressed (Flp-In system, Invitrogen). […] Changes in intracellular calcium were determined by fluorescence measurement with the calcium-sensitive dye fluo-4 (Invitrogen) in a fluorescence imaging plate reader (FLIPR, […]).
CHO cells stably overexpressing the human Edg-2 receptor were seeded (40.000 per well) in black clear-bottomed poly-D-lysine-coated 96 well plates (Becton Dickinson, Biocoat cellware) approximately 18-24 h prior to the experiments. Cells were grown in an incubator at 37° C., 5% carbon dioxide and 95% humidity in cell culture media based on F-12 glutamax media (Gibco, #31765) supplemented with 1% (vol/vol) penicilline/streptomycine (PAN, #P06-07100), 10% (vol/vol) fetal calf serum (FCS, PAA, #A15-151) and hygromycin B (Invitrogen, #10687-010) 300 mg/l (final concentrations).
Prior to the FLIPR experiment, cells were loaded with fluo-4 acetoxymethyl ester (fluo-4 AM, Invitrogen, #F14202) for 60 min in an incubator at 37° C., 5% carbon dioxide and 95% humidity in dye-loading buffer consisting of Hanks' Balanced Salt Solution (HBSS, Invitrogen, #14065049) supplemented with fluo-4 AM at 2 μM (all data given for final concentration), Pluronic® F-127 0.05% (vol/vol) (Invitrogen, #P-3000 MP), HEPES 20 mM (Gibco, #15630), probenecid 2.5 mM (Sigma, #P-8761) and bovine serum albumin 0.05% (BSA, Sigma, #A-6003), adjusted to pH 7.5 with sodium hydroxide. During cell loading, fluo-4 AM is cleaved by intracellular esterase resulting in trapping of the dye fluo-4 within the cells. Loading was terminated by washing of the cells in a cell washer (Tecan Power washer) three times with the buffer specified afore but without fluo-4 AM and BSA. This latter buffer was also used as the buffer in the subsequent cell fluorescence measurements.
The dye-loaded and washed cells were pre-incubated for approximately 5 min with various concentrations of the test compound added as a solution in DMSO (0.3% vol/vol maximum final concentration of DMSO), or with DMSO in the respective concentration only (positive control). Subsequent addition of LPA (18:1, 1-oleoyl-sn-glycerol 3-phosphate; 100 nM final concentration) leads to liberation of intracellular calcium from internal stores resulting in a large transient increase of the fluo-4 fluorescence signal which was monitored over approximately 3 min. The percent inhibition caused by the test compound was determined from the maximum fluorescence response after LPA addition to cells pre-incubated with the compound as compared to the maximum fluorescence response after LPA addition to cells pre-incubated with DMSO only. All fluorescence values were corrected for the baseline fluorescence values obtained with cells which were pre-incubated with DMSO only and were not treated with LPA (baseline control). All measurements were performed in triplicate. From the percent inhibitions the inhibitory concentration IC50 was determined.
In the case of `COc1ccc(C(=O)N[C@@]2(C(=O)O)C[C@@H]3CC[C@H]2O3)cc1OCCc1cccc(C)c1` (racemic) [Example 126, (1R,2S,4S)-2-[4-Methoxy-3-(2-m-tolyl-ethoxy)-benzoylamino]-7-oxa-bicyclo[2.2.1]heptane-2-carboxylic acid and (1S,2R,4R)-2-[4-methoxy-3-(2-m-tolyl-ethoxy)-benzoylamino]-7-oxa-bicyclo[2.2.1]heptane-2-carboxylic acid], the IC50 was less than 0.1 µM. Next, `COc1ccc(C(=O)NC2(C(=O)O)CCCC2OCc2ccccc2)cc1OCCc1cccc(C)c1` (single isomer, unassigned) [Example 66, 2-Benzyloxy-1-[4-methoxy-3-(2-m-tolyl-ethoxy)-benzoylamino]-cyclopentanecarboxylic acid]: 0.1 to 1 µM; `COc1ccc(C(=O)NC2(C(=O)O)CCCCCC2)cc1OCCc1cc(C)ccc1F` [Example 1, 1-{3-[2-(2-Fluoro-5-methyl-phenyl)-ethoxy]-4-methoxy-benzoylamino}-cycloheptanecarboxylic acid]: 0.1 to 1 µM.

`COc1ccc(C(=O)NC2(C(=O)O)CCCCCC2)cc1OCCc1cccc(C)c1` [Example 2, 1-[4-Methoxy-3-(2-m-tolyl-ethoxy)-benzoylamino]-cycloheptanecarboxylic acid]: the IC50 was less than 0.1 µM. Turning to `COc1ccc(C(=O)NC2(C(=O)O)CCCCCC2)cc1OCCc1cc(Cl)ccc1F` [Example 3, 1-{3-[2-(5-Chloro-2-fluoro-phenyl)-ethoxy]-4-methoxy-benzoylamino}-cycloheptanecarboxylic acid], the IC50 was less than 0.1 µM. Regarding `COc1ccc(C(=O)NC2(C(=O)O)CCCCCC2)cc1OCCc1c(C)n[nH]c1C` [Example 4], the IC50 was in the range of 0.1 to 1 µM. With `COc1ccc(C(=O)NC2(C(=O)O)CCCCCC2)cc1OCCc1cc(OC(F)(F)F)ccc1F` [Example 5], the IC50 was less than 0.1 µM. As for `COc1ccc(C(=O)NC2(C(=O)O)CCCCCC2)cc1OCCc1cccs1` [Example 6], the IC50 lay in the range of 0.1 to 1 µM. For the compound `COc1cccc(CCOc2cc(C(=O)NC3(C(=O)O)CCCCCC3)ccc2OC)c1` [Example 7], the IC50 was less than 0.1 µM.

Consider `COc1ccc(C(=O)NC2(C(=O)O)CCCCCC2)cc1OCCc1ccccc1` [Example 8], for which the IC50 is less than 0.1 µM. As for `COc1ccc(C(=O)NC2(C(=O)O)CCCCCC2)cc1OCC(C)c1ccccc1` (stereo not drawn) [Example 9], the IC50 was less than 0.1 µM. Next, `COc1ccc(C(=O)NC2(C(=O)O)CCCCCC2)cc1OCCc1cccc(Cl)c1` [Example 10]: less than 0.1 µM; `COc1ccc(C(=O)NC2(C(=O)O)CCCCCC2)cc1OCCc1ccsc1` [Example 11, 1-{3-[2-(thiophen-3-yl)-ethoxy]-4-methoxy-benzoylamino]-cycloheptanecarboxylic acid]: 0.1 to 1 µM; `COc1ccc(C(=O)NC2(C(=O)O)CCCCCC2)cc1OCC1CC=CCC1` (stereo not drawn) [Example 12]: 0.1 to 1 µM. The figure for `COc1ccc(C(=O)NC2(C(=O)O)CCCCCC2)cc1OCCc1ccccc1F` [Example 13] is less than 0.1 µM; for `CCC(COc1cc(C(=O)NC2(C(=O)O)CCCCCC2)ccc1OC)c1ccccc1` (stereo not drawn) [Example 14] it is 0.1 to 1 µM. The figure for `COc1ccc(C(=O)NC2(C(=O)O)CCCCCC2)cc1OCCc1ccc(Cl)cc1Cl` [Example 15] is 1 to 30 µM. Consider `COc1ccc(C(=O)NC2(C(=O)O)CCCCCC2)cc1OCCc1c(F)cccc1Cl` [Example 16], for which the IC50 is less than 0.1 µM. `COc1ccc(C(=O)NC2(C(=O)O)CCCCCC2)cc1OCCc1cc(Cl)ccc1Cl` [Example 17]: the IC50 was less than 0.1 µM. `COc1ccc(C(=O)NC2(C(=O)O)CCCCCC2)cc1OCCc1cc(C)ccc1C` [Example 18]: the IC50 was in the range of 0.1 to 1 µM. The figure for `COc1ccc(C(=O)NC2(C(=O)O)CCCCCC2)cc1OCCc1ccccc1C` [Example 19] is 0.1 to 1 µM; for `COc1ccc(C(=O)NC2(C(=O)O)CCCCCC2)cc1OCCc1cc(F)ccc1F` [Example 20] it is less than 0.1 µM. Turning to `COc1ccc(C(=O)NC2(C(=O)O)CCCCCC2)cc1OCCc1cccc(Cl)c1F` [Example 21], the IC50 fell in the range of 0.1 to 1 µM. In the case of `COc1ccc(C(=O)NC2(C(=O)O)CCCCCC2)cc1OCC1(c2ccccc2)COC1` [Example 22], the IC50 was less than 0.1 µM. Next, `COc1ccc(C(=O)NC2(C(=O)O)CCCCCCC2)cc1OCCc1cccc(C)c1` [Example 23, 1-[4-Methoxy-3-(2-m-tolyl-ethoxy)-benzoylamino]-cyclooctanecarboxylic acid]: 0.1 to 1 µM; `COc1ccc(C(=O)NC2(C(=O)O)CCCCCCC2)cc1OCCc1cc(C)ccc1F` [Example 24, 1-{3-[2-(2-Fluoro-5-methyl-phenyl)-ethoxy]-4-methoxy-benzoylamino}-cyclooctanecarboxylic acid]: 0.1 to 1 µM. `COc1ccc(C(=O)NC2(C(=O)O)CCCOCC2)cc1OCCc1cccc(C)c1` (stereo not drawn) [Example 25, 4-[4-Methoxy-3-(2-m-tolyl-ethoxy)-benzoylamino]-oxepane-4-carboxylic acid]: the IC50 fell in the range of 1 to 30 µM. With `COc1ccc(C(=O)NC2(C(=O)O)CCCC(C)CC2)cc1OCCc1cccc(C)c1` (stereo not drawn) [Example 26], the IC50 is less than 0.1 µM.

With `COc1ccc(C(=O)NC2(C(=O)O)CCC(C(F)(F)F)CC2)cc1OCCc1cccc(C)c1` (stereo not drawn) [Example 28], the IC50 is less than 0.1 µM. The figure for `COc1ccc(C(=O)NC2(C(=O)O)CCC(C(C)C)CC2)cc1OCCc1cccc(C)c1` (stereo not drawn) [Example 29] is less than 0.1 µM. In the case of `CCC1CCC(NC(=O)c2ccc(OC)c(OCCc3cccc(C)c3)c2)(C(=O)O)CC1` (stereo not drawn) [Example 30], the IC50 is less than 0.1 µM. Next, `COc1ccc(C(=O)NC2(C(=O)O)CC3CCC(C3)C2)cc1OCCc1cccc(C)c1` (stereo not drawn) [Example 31]: less than 0.1 µM; `COc1ccc(C(=O)NC2(C(=O)O)CCCCC2C)cc1OCCc1cccc(C)c1` (stereo not drawn) [Example 32]: 1 to 30 µM; `COc1ccc(C(=O)NC2(C(=O)O)CCC(C)C2)cc1OCCc1cccc(C)c1` (stereo not drawn) [Example 33]: less than 0.1 µM. Consider `COc1ccc(C(=O)NC2(C(=O)O)CCC2)cc1OCCc1cccc(C)c1` [Example 34], for which the IC50 was in the range of 1 to 30 µM. With `COc1ccc(C(=O)NC2(C(=O)O)CCCC2)cc1OCCc1cccc(C)c1` [Example 35], the IC50 lay within 1 to 30 µM. Take `COc1ccc(C(=O)NC2(C(=O)O)CCSCC2)cc1OCCc1cccc(C)c1` [Example 36]: the IC50 lay in the range of 0.1 to 1 µM. Next, `COc1ccc(C(=O)NC2(C(=O)O)CCOCC2)cc1OCCc1cccc(C)c1` [Example 37]: 1 to 30 µM; `COc1ccc(C(=O)NC2(C(=O)O)CCCCC2)cc1OCCc1cccc(C)c1` [Example 38]: 0.1 to 1 µM; `COc1ccc(C(=O)NC2(C(=O)O)C[C@H]3CC[C@]2(C)C3(C)C)cc1OCCc1cccc(C)c1` (stereo partly drawn) [Example 39]: 1 to 30 µM.

For the compound `C=CC1CC1(NC(=O)c1ccc(OC)c(OCCc2cccc(C)c2)c1)C(=O)O` (stereo not drawn) [Example 40], the IC50 lay in the range of 0.1 to 1 µM. The figure for `CCC1CC1(NC(=O)c1ccc(OC)c(OCCc2cccc(C)c2)c1)C(=O)O` (stereo not drawn) [Example 41] is less than 0.1 µM; for `COc1ccc(C(=O)N[C@]2(C(=O)O)CC[C@@H](C)CC2)cc1OCCc1cccc(C)c1` [Example 43, trans-1-[4-Methoxy-3-(2-m-tolyl-ethoxy)-benzoylamino]-4-methyl-cyclohexanecarboxylic acid] it is less than 0.1 µM; for `COc1ccc(C(=O)NC2(C(=O)O)CCC(F)CC2)cc1OCCc1cccc(C)c1` (stereo not drawn) [Example 44] it is 0.1 to 1 µM. The figure for `COc1ccc(C(=O)NC2(C(=O)O)CCC(C)(C)CC2)cc1OCCc1cccc(C)c1` [Example 45] is 0.1 to 1 µM. For `COc1ccc(C(=O)NC2(C(=O)O)CCCC(C)CC2)cc1OCCc1cccc(C)c1` (stereo not drawn) [Example 46], the IC50 is less than 0.1 µM. Next, `COc1ccc(C(=O)NC2(C(=O)O)CC3CCC(C3)C2)cc1OCCc1cccc(C)c1` (stereo not drawn) [Example 47]: less than 0.1 µM. The figure for `COc1ccc(C(=O)NC2(C(=O)O)CCCCC2C)cc1OCCc1cccc(C)c1` (stereo not drawn) [Example 48] is 1 to 30 µM.
